Laboratory results: US20250081967A1, “PESTICIDALLY ACTIVE HETEROCYCLIC DERIVATIVES WITH SULFOXIMINE CONTAINING SUBSTITUENTS” (SYNGENTA CROP PROTECTION AG, priority 2021, published 2025)

Tests used:
Type in all cases: in vivo
[1] = test system: Myzus persicae; assay: Activity against Myzus persicae (green peach aphid), feeding/contact activity, sunflower leaf discs; details: Myzus persicae, foliar; for mortality at 200 ppm: 144 h, application rate 200 ppm, feeding/contact, 6 days after infestation
Description: Example B4: Activity Against Myzus persicae (Green Peach Aphid) Feeding/Contact Activity
Sunflower leaf discs were placed on agar in a 24-well microtiter plate and sprayed with aqueous test solutions prepared from 10′000 ppm DMSO stock solutions. After drying, the leaf discs were infested with an aphid population of mixed ages. The samples were assessed for mortality 6 days after infestation.

[2] = test system: Bemisia tabaci; assay: Activity against Bemisia tabaci (cotton white fly), cotton leaf discs; details: for mortality at 200 ppm / mortality at 12.5 ppm: foliar; for mortality at 200 ppm: 144 h, application rate 200 ppm, adult white flies, 6 days after incubation
Description: Example B6: Activity Against Bemisia tabaci (Cotton White Fly)
Cotton leaf discs were placed on agar in 24-well microtiter plates and sprayed with aqueous test solutions prepared from 10′000 ppm DMSO stock solutions. After drying the leaf discs were infested with adult white flies. The samples were checked for mortality 6 days after incubation.

[3] = test system: Diabrotica balteata; assay: Activity against Diabrotica balteata (corn root worm), maize sprouts; details: for percent effect (mortality or growth inhibition) at 200 ppm: 96 h, application rate 200 ppm, L2 larvae, 4 days after infestation, read-out: effect in at least one of the two categories (mortality or growth inhibition); for Mortality (%) / mortality at 50 ppm: concentration 50 ppm
Description: Example B3: Activity Against Diabrotica Balteata (Corn Root Worm)
Maize sprouts placed onto an agar layer in 24-well microtiter plates were treated with aqueous test solutions prepared from 10′000 ppm DMSO stock solutions by spraying. After drying, the plates were infested with L2 larvae (6 to 10 per well). The samples were assessed for mortality and growth inhibition in comparison to untreated samples 4 days after infestation.

[4] = test system: Euschistus heros; assay: Activity against Euschistus heros (neotropical brown stink bug), soybean leaf; details: 120 h, application rate 200 ppm, N-2 nymphs, 5 days after infestation, read-out: effect in at least one of the two categories (mortality or growth inhibition)
Description: Example B7: Activity Against Euschistus heros (Neotropical Brown Stink Bug)
Soybean leaf on agar in 24-well microtiter plates were sprayed with aqueous test solutions prepared from 10′000 ppm DMSO stock solutions. After drying the leaf were infested with N-2 nymphs. The samples were assessed for mortality and growth inhibition in comparison to untreated samples 5 days after infestation.

[5] = test system: Myzus persicae; assay: Activity against Myzus persicae (green peach aphid), systemic activity, pea seedlings; details: for mortality at 24 ppm: Myzus persicae
Description: Example B5: Activity Against Myzus persicae (Green Peach Aphid) Systemic Activity
Roots of pea seedlings infested with an aphid population of mixed ages were placed directly in the aqueous test solutions prepared from 10′000 DMSO stock solutions. The samples were assessed for mortality 6 days after placing seedlings in test solutions.

[6] = test system: Spodoptera littoralis; assay: Activity against Spodoptera littoralis (Egyptian cotton leaf worm), cotton leaf discs; details: foliar, 72 h, application rate 200 ppm, L1 larvae, 3 days after infestation, read-out: control (mortality, anti-feeding effect or growth inhibition)
Description: Example B1: Activity Against Spodoptera littoralis (Egyptian Cotton Leaf Worm)
Cotton leaf discs were placed onto agar in 24-well microtiter plates and sprayed with aqueous test solutions prepared from 10′000 ppm DMSO stock solutions. After drying the leaf discs were infested with five L1 larvae. The samples were assessed for mortality, anti-feeding effect, and growth inhibition in comparison to untreated samples 3 days after infestation. Control of Spodoptera littoralis by a test sample is given when at least one of the categories mortality, anti-feedant effect, and growth inhibition is higher than the untreated sample.

[7] = test system: Plutella xylostella; assay: Activity against Plutella xylostella (diamond back moth), artificial diet, eggs; details: 192 h, application rate 200 ppm, 8 days after infestation, read-out: effect in at least one of the two categories (mortality or growth inhibition)
Description: Example B9: Activity Against Plutella xylostella (Diamond Back Moth)
24-well microtiter plates with artificial diet were treated with aqueous test solutions prepared from 10′000 ppm DMSO stock solutions by pipetting. After drying, Plutella eggs were pipetted through a plastic stencil onto a gel blotting paper and the plate was closed with it. The samples were assessed for mortality and growth inhibition in comparison to untreated samples 8 days after infestation.

[8] = 144 h, test rate 24 ppm, systemic, 6 days after placing seedlings in test solutions
[9] = Myzus persicae (systemic), concentration 24 ppm

`CCS(=N)(=O)c1cc(C2(C#N)CC2)cnc1-c1nc2cc(C(F)(F)F)nnc2n1C` (racemic) [Compound P2, 1-[5-(ethylsulfonimidoyl)-6-[7-methyl-3-(trifluoromethyl)imidazo[4,5-c]pyridazin-6-yl]-3-pyridyl]cyclopropanecarbonitrile] showed a mortality at 200 ppm [1] of at least 80%, a mortality at 200 ppm [2] of at least 80% and a percent effect (mortality or growth inhibition) at 200 ppm [3] of at least 80%. It also gave a percent effect (mortality or growth inhibition) at 200 ppm [4] of at least 80% and a mortality at 24 ppm [5, 8] of at least 80%.
`CCS(=N)(=O)c1cc(C2(C#N)CC2)ccc1-c1nc2cc(C(F)(F)F)ncc2n1C` (racemic) [Compound P18, 1-[3-(ethylsulfonimidoyl)-4-[3-methyl-6-(trifluoromethyl)imidazo[4,5-c]pyridin-2-yl]phenyl]cyclopropanecarbonitrile] was tested, and the mortality at 200 ppm [1] was at least 80%, the mortality at 200 ppm [2] was at least 80% and the percent effect (mortality or growth inhibition) at 200 ppm [3] was at least 80%. The percent effect (mortality or growth inhibition) at 200 ppm [4] was at least 80% and the mortality at 24 ppm [5, 8] was at least 80%.
With `CCS(=N)(=O)c1cc(C2(C#N)CC2)ccc1-c1nc2cc(C(F)(F)F)cnc2n1C` (single isomer, unassigned) [Compound P6-B, 1-[3-(ethylsulfonimidoyl)-4-[3-methyl-6-(trifluoromethyl)imidazo[4,5-b]pyridin-2-yl]phenyl]cyclopropanecarbonitrile] the “Mortality (%)” value [3] was 80%, the percent control (mortality, anti-feedant effect or growth inhibition) at 200 ppm [6] was at least 80% and the percent effect (mortality or growth inhibition) at 200 ppm [7] was at least 80%. The “Mortality (%)” value ([5]; Myzus persicae (systemic), concentration 6 ppm) was 100%.
Work on `CCS(=N)(=O)c1cc(C2(C#N)CC2)cnc1-c1nc2cc(C(F)(F)F)ncc2n1C` (single isomer, unassigned) [Compound P10-A, 1-[5-(ethylsulfonimidoyl)-6-[3-methyl-6-(trifluoromethyl)imidazo[4,5-c]pyridin-2-yl]-3-pyridyl]cyclopropanecarbonitrile] yielded a mortality at 200 ppm [1] of at least 80%, a mortality at 0.781 ppm ([1]; Myzus persicae (feeding/contact), concentration 0.781 ppm) of 80% and a mortality at 200 ppm [2] of at least 80%. The mortality at 12.5 ppm ([2]; concentration 12.5 ppm) was 80%, the percent effect (mortality or growth inhibition) at 200 ppm [3] was at least 80% and the percent effect (mortality or growth inhibition) at 200 ppm [7] was at least 80%. The mortality at 24 ppm [5, 8] was at least 80%.
With `CCS(=N)(=O)c1cc(C(C)(C)C#N)cnc1-c1nc2cc(C(F)(F)F)cnc2n1C` (single isomer, unassigned) [Compound P12-A, 2-[5-(ethylsulfonimidoyl)-6-[3-methyl-6-(trifluoromethyl)imidazo[4,5-b]pyridin-2-yl]-3-pyridyl]-2-methyl-propanenitrile] the mortality at 200 ppm [1] was at least 80%, the mortality at 200 ppm [2] was at least 80% and the percent effect (mortality or growth inhibition) at 200 ppm [3] was at least 80%. For the same compound, the percent effect (mortality or growth inhibition) at 200 ppm [7] was at least 80% and the mortality at 24 ppm [5, 8] was at least 80%.
Work on `CCS(=N)(=O)c1cc(OC(C)(C)C#N)cnc1-c1nc2cc(C(F)(F)F)ncc2n1C` (single isomer, unassigned) [Compound P13-A, 2-[[5-(ethylsulfonimidoyl)-6-[3-methyl-6-(trifluoromethyl)imidazo[4,5-c]pyridin-2-yl]-3-pyridyl]oxy]-2-methyl-propanenitrile] yielded a mortality at 200 ppm [1] of at least 80%, a mortality at 12.5 ppm ([1]; Myzus persicae (feeding/contact), concentration 12.5 ppm) of 80% and a mortality at 200 ppm [2] of at least 80%. For the same compound, the percent effect (mortality or growth inhibition) at 200 ppm [3] was at least 80%, the mortality at 50 ppm [3] was 80% and the percent effect (mortality or growth inhibition) at 200 ppm [7] was at least 80%. For the same compound, the mortality at 24 ppm [5, 8] was at least 80%.
For `CCS(=N)(=O)c1cc(OC(C)(C)C#N)cnc1-c1nc2cc(C(F)(F)F)nnc2n1C` (single isomer, unassigned) [Compound P15-A, 2-[[5-(ethylsulfonimidoyl)-6-[7-methyl-3-(trifluoromethyl)imidazo[4,5-c]pyridazin-6-yl]-3-pyridyl]oxy]-2-methyl-propanenitrile], the mortality at 200 ppm [1] was at least 80%, the mortality at 200 ppm [2] was at least 80% and the percent effect (mortality or growth inhibition) at 200 ppm [3] was at least 80%. It also gave a mortality at 12.5 ppm ([3]; concentration 12.5 ppm) of 80%, a percent control (mortality, anti-feedant effect or growth inhibition) at 200 ppm [6] of at least 80% and a percent effect (mortality or growth inhibition) at 200 ppm [7] of at least 80%. For the same compound, the mortality at 24 ppm [5, 8] was at least 80%.
In the case of `CCS(=N)(=O)c1cc(C2(C#N)CC2)cnc1-c1nc2cc(C(F)(F)F)cnc2n1C` (single isomer, unassigned) [Compound P16-A, 1-[5-(ethylsulfonimidoyl)-6-[3-methyl-6-(trifluoromethyl)imidazo[4,5-b]pyridin-2-yl]-3-pyridyl]cyclopropanecarbonitrile], the mortality at 200 ppm [1] is reported as at least 80%, the mortality at 3.125 ppm ([1]; Myzus persicae (feeding/contact), concentration 3.125 ppm) is reported as 100% and the mortality at 200 ppm [2] is reported as at least 80%. For the same compound, the mortality at 12.5 ppm ([2]; concentration 12.5 ppm) was 100%, the percent effect (mortality or growth inhibition) at 200 ppm [3] was at least 80% and the percent effect (mortality or growth inhibition) at 200 ppm [7] was at least 80%. For the same compound, the mortality at 24 ppm [5, 8] was at least 80%.
With `CCS(=N)(=O)c1cc(OC(C)(C)C#N)c(C)nc1-c1nc2cc(C(F)(F)F)ncc2n1C` (single isomer, unassigned) [Compound P17-A, 2-[[5-(ethylsulfonimidoyl)-2-methyl-6-[3-methyl-6-(trifluoromethyl)imidazo[4,5-c]pyridin-2-yl]-3-pyridyl]oxy]-2-methyl-propanenitrile] the mortality at 200 ppm [1] was at least 80%, the mortality at 200 ppm [2] was at least 80% and the percent effect (mortality or growth inhibition) at 200 ppm [3] was at least 80%. It also gave a percent effect (mortality or growth inhibition) at 200 ppm [7] of at least 80% and a mortality at 24 ppm [5, 8] of at least 80%.
`CCS(=N)(=O)c1cc(C2(C#N)CC2)ccc1-c1nc2cc(C(F)(F)F)ncc2n1C` (single isomer, unassigned) [Compound P18-A, 1-[3-(ethylsulfonimidoyl)-4-[3-methyl-6-(trifluoromethyl)imidazo[4,5-c]pyridin-2-yl]phenyl]cyclopropanecarbonitrile] was tested, and the mortality at 200 ppm [1] was at least 80%, the “Mortality (%)” value ([2]; concentration 12.5 ppm) was 100% and the mortality at 200 ppm [2] was at least 80%. For the same compound, the percent effect (mortality or growth inhibition) at 200 ppm [3] was at least 80%, the “Mortality (%)” value [3] was 100% and the percent effect (mortality or growth inhibition) at 200 ppm [7] was at least 80%. The mortality at 24 ppm [5, 8] was at least 80%.
For `CCS(=N)(=O)c1cc(C2(C#N)CC2)ccc1-c1nc2cc(C(F)(F)F)ncc2n1C` (single isomer, unassigned) [Compound P18-B, 1-[3-(ethylsulfonimidoyl)-4-[3-methyl-6-(trifluoromethyl)imidazo[4,5-c]pyridin-2-yl]phenyl]cyclopropanecarbonitrile], the mortality at 12.5 ppm ([2]; concentration 12.5 ppm) was 80%, the mortality at 50 ppm [3] was 100% and the percent effect (mortality or growth inhibition) at 200 ppm [4] was at least 80%.
`CC[S@@](=N)(=O)c1cc(OC(C)(C)C#N)cnc1-c1nc2cc(C(F)(F)F)cnc2n1C` [Compound P9-A, (R)-2-[[5-(ethylsulfonimidoyl)-6-[3-methyl-6-(trifluoromethyl)imidazo[4,5-b]pyridin-2-yl]-3-pyridyl]oxy]-2-methyl-propanenitrile] was tested, and the mortality at 200 ppm [1] was at least 80%, the mortality at 200 ppm [2] was at least 80% and the percent effect (mortality or growth inhibition) at 200 ppm [3] was at least 80%. It also gave a mortality at 50 ppm [3] of 80%, a percent control (mortality, anti-feedant effect or growth inhibition) at 200 ppm [6] of at least 80% and a percent effect (mortality or growth inhibition) at 200 ppm [7] of at least 80%. For the same compound, the mortality at 24 ppm [5, 8] was at least 80% and the mortality at 24 ppm [5, 9] was 100%.
Work on `CC[S@](=N)(=O)c1cc(OC(C)(C)C#N)cnc1-c1nc2cc(C(F)(F)F)cnc2n1C` [Compound P9-B, (S)-2-[[5-(ethylsulfonimidoyl)-6-[3-methyl-6-(trifluoromethyl)imidazo[4,5-b]pyridin-2-yl]-3-pyridyl]oxy]-2-methyl-propanenitrile] yielded a mortality at 200 ppm [1] of at least 80%, a mortality at 200 ppm [2] of at least 80% and a percent effect (mortality or growth inhibition) at 200 ppm [3] of at least 80%. The mortality at 50 ppm [3] was 100%, the percent control (mortality, anti-feedant effect or growth inhibition) at 200 ppm [6] was at least 80% and the percent effect (mortality or growth inhibition) at 200 ppm [7] was at least 80%. The mortality at 24 ppm [5, 8] was at least 80% and the mortality at 24 ppm [5, 9] was 100%.
